Calls of active or inactive are those of the source.
Columns and labels:
[1] = target: T1, G-protein coupled receptor 55 (Homo sapiens, UniProt Q9Y2T6); assay: GPR55 antagonists blocking LPI-driven arrestin recruitment, primary screen, imaging, U2OS, beta-arrestin-GFP, LPI agonist (AID 2013); assay type: functional;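 further: antagonist potency measured as reduced agonist-driven arrestin aggregation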
Cannabinoid receptor 1 [2] = target: T2, Cannabinoid receptor 1 (Homo sapiens, UniProt P21554); assay: SAR analysis of antagonists of the Cannabinoid Receptor 1 using an Image-Based Assay - Set 2. [Related pubchem assays (depositor defined):AID2013, AID2026]; assay type: functional
[3] = target: T3, G-protein coupled receptor 35 (Homo sapiens, UniProt Q9HC97); assay: SAR analysis of Agonists of the GPR35 Receptor using an Image-Based Assay - Set 2. [Related pubchem assays (depositor defined):AID2013, AID2026]; assay type: functional
Cannabinoid receptor 2 [4] = target: T4, Cannabinoid receptor 2 (Homo sapiens, UniProt P34972); assay: SAR analysis of antagonists of the Cannabinoid Receptor 2 using an Image-Based Assay. [Related pubchem assays (depositor defined):AID2013, AID2026]; assay type: functional
Cannabinoid receptor 1 [5] = target: T2, Cannabinoid receptor 1; assay: SAR analysis of agonists of the Cannabinoid Receptor 1 using an Image-Based Assay - Set 2. [Related pubchem assays (depositor defined):AID2013, AID2026]; assay type: functional
[6] = target: T3, G-protein coupled receptor 35; assay: SAR analysis of Antagonists of the GPR35 Receptor using an Image-Based Assay - Set 3. [Related pubchem assays (depositor defined):AID2013, AID2026]; assay type: functional
[7] = target: T1, G-protein coupled receptor 55; assay: GPR55 antagonist potency of analogs, SAR follow-up, imaging, U2OS, beta-arrestin-GFP, LPI agonist, set 2 (AID 2820); assay type: functional
Cannabinoid receptor 2 [8] = target: T4, Cannabinoid receptor 2; assay: SAR analysis of agonists of the Cannabinoid Receptor 2 using an Image-Based Assay. [Related pubchem assays (depositor defined):AID2013, AID2026]; assay type: functional
[9] = NIH-3T3 fibroblast cytotoxicity, dose response, cytotoxicity control, cell-based, fluorescence, Alamar Blue, secondary assay (AID 2327); assay type: functional;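 further: NIH-3T3 mouse fibroblasts cultured with fluconazole at 8 µg/mL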
SUMO-activating enzyme [10] = target: T5, SUMO-activating enzyme (Homo sapiens, UniProt Q9UBT2); assay: SUMOylation inhibitor hit validation, confirmation, SUMOylation inhibitor project, biochemical, AlphaScreen (AID 2018); assay type: functional
[11] = C. albicans growth with fluconazole, confirmation, fluorescence, retest (AID 2467); assay type: functional, cell-based
Large T antigen = Large T antigen (Simian virus 40, UniProt P03070); assay type: functional, Betapolyomavirus macacae;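 further: Confirmatory-stage PubChem screen for compounds that inhibit SV40 T antigen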
SUMO-activating enzyme [12] = target: T5, SUMO-activating enzyme; assay: inhibitors of in vitro SUMOylation cascade, primary screen, biochemical, HTRF, uHTS (AID 2006); assay type: protein-complex assay
[13] = target: DNA dC->dU-editing enzyme APOBEC-3A (Homo sapiens, UniProt P31941); assay: APOBEC3A DNA deaminase inhibitors, dose response, biochemical (AID 504722); assay type: functional
[14] = target: Intestinal-type alkaline phosphatase (Mus musculus, UniProt P24822); assay: PubChem AID 488785; assay type: functional
[15] = target: DNA dC->dU-editing enzyme APOBEC-3G (Homo sapiens, UniProt Q9HC16); assay: Dose Response confirmation of small molecule APOBEC3G DNA Deaminase Inhibitors via a fluorescence-based single-stranded DNA deaminase assay. [Related pubchem assays (depositor defined):AID493012, AID493028]; assay type: functional
[16] = target: T6, Alkaline phosphatase, tissue-nonspecific isozyme (Homo sapiens, UniProt P05186); assay: TNAP enzyme inhibition by screening hits, dose response, selectivity assay for mouse IAP inhibitor project, biochemical, human TNAP, uHTS hits (AID 488906); assay type: functional
T6 sequence (P05186 whole entry): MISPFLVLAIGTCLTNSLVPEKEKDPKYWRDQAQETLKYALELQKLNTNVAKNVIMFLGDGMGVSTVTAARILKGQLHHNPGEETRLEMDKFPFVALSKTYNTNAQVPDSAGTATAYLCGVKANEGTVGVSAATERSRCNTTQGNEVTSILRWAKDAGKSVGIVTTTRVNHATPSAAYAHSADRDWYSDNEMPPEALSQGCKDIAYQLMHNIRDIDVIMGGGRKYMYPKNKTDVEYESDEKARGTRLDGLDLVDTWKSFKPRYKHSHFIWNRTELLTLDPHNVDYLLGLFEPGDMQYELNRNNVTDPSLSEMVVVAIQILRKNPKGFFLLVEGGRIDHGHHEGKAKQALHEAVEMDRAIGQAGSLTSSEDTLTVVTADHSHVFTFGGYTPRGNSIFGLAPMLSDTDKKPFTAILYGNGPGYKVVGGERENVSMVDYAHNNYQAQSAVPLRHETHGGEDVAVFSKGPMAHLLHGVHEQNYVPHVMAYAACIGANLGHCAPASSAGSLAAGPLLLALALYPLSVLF

[17] = target: Intestinal-type alkaline phosphatase (Homo sapiens, UniProt P09923); assay: inhibition of human intestinal alkaline phosphatase – biochemical, dose response (AID 488876); assay type: functional
Albumin = Albumin (Bos taurus, UniProt P02769); assay: Counterscreen for inhibitors of T-cell receptor (TCR)-CD3 interaction: Fluorescence-based biochemical high throughput dose response assay to identify inhibitors of T-cell receptor (TCR)-CD3 interaction using a TAMRA-labeled BSA probe.; assay type: functional
[18] = target: T7, Histone-lysine N-methyltransferase NSD2 (Homo sapiens, UniProt O96028); assay type: biochemical
T7 sequence (O96028 whole entry): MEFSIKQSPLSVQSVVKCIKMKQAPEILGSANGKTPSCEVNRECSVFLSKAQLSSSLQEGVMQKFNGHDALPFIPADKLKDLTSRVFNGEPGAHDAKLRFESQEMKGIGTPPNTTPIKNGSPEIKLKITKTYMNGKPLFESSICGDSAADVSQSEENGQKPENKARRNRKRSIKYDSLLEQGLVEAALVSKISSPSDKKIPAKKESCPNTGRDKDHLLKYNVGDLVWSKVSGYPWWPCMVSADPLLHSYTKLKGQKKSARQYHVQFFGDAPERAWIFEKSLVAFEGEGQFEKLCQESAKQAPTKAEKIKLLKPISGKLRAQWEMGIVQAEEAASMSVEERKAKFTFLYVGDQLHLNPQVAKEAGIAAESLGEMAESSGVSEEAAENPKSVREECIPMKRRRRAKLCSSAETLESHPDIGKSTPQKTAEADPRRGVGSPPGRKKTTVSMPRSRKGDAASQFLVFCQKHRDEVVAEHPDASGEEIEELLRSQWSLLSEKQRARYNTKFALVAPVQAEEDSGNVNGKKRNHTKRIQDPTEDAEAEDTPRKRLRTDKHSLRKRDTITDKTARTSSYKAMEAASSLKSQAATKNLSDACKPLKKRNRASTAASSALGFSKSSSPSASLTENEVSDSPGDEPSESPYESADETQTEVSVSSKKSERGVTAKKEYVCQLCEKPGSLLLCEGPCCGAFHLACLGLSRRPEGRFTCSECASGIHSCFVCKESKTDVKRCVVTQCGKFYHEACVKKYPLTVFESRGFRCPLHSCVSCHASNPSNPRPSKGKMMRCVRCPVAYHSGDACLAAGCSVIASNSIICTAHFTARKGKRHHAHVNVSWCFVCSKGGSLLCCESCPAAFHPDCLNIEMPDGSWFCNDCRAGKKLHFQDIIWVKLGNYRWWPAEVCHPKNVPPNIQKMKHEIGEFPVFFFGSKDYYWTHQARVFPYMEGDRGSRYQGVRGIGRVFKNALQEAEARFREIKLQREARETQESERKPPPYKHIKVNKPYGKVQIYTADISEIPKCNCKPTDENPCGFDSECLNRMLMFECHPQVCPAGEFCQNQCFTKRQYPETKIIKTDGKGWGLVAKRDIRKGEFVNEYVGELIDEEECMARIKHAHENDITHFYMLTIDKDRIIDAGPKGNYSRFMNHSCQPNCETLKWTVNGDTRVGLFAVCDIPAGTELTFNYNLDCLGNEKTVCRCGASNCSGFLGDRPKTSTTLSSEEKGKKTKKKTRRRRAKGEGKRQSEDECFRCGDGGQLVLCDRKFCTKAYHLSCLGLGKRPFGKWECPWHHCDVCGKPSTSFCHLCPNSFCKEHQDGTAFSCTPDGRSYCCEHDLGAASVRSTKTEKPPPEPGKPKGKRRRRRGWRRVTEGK

Protein RecA [19] = target: T8, Protein RecA (Mycobacterium tuberculosis, UniProt P9WHJ3); assay: GFP-RecA MOA-DTT Measured in Biochemical System Using Plate Reader - 2047-05_Inhibitor_Dose_DryPowder_Activity. [Related pubchem assays (depositor defined):AID2223]; parameters: species or system Mycobacterium tuberculosis H37Rv
T8 sequence (P9WHJ3 whole entry): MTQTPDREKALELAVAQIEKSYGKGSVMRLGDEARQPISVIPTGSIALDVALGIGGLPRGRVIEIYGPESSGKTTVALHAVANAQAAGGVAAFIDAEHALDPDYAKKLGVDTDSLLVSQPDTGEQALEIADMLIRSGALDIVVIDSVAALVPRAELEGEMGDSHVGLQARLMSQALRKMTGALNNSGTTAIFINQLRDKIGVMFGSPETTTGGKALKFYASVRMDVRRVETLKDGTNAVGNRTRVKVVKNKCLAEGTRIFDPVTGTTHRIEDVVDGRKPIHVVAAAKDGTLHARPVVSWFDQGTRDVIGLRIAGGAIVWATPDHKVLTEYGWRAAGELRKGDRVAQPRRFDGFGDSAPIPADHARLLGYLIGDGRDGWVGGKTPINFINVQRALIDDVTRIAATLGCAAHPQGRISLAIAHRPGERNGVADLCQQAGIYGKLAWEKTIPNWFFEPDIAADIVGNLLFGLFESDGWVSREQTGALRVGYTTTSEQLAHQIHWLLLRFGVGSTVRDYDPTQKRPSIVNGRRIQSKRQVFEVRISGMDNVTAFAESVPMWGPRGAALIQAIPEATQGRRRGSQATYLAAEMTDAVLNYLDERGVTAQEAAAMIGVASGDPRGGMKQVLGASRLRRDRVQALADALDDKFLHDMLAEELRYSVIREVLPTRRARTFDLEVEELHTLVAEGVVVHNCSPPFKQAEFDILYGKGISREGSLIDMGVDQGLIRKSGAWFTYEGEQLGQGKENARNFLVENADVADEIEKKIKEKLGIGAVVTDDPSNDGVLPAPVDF

[20] = target: T9, Replicative DNA helicase DnaB (Mycobacterium tuberculosis, UniProt P9WMR3); assay: DnaB Intein secondary assay Measured in Biochemical System Using Plate Reader - 2047-04_Inhibitor_Dose_DryPowder_Activity. [Related pubchem assays (depositor defined):AID2223]
T9 sequence (P9WMR3 whole entry): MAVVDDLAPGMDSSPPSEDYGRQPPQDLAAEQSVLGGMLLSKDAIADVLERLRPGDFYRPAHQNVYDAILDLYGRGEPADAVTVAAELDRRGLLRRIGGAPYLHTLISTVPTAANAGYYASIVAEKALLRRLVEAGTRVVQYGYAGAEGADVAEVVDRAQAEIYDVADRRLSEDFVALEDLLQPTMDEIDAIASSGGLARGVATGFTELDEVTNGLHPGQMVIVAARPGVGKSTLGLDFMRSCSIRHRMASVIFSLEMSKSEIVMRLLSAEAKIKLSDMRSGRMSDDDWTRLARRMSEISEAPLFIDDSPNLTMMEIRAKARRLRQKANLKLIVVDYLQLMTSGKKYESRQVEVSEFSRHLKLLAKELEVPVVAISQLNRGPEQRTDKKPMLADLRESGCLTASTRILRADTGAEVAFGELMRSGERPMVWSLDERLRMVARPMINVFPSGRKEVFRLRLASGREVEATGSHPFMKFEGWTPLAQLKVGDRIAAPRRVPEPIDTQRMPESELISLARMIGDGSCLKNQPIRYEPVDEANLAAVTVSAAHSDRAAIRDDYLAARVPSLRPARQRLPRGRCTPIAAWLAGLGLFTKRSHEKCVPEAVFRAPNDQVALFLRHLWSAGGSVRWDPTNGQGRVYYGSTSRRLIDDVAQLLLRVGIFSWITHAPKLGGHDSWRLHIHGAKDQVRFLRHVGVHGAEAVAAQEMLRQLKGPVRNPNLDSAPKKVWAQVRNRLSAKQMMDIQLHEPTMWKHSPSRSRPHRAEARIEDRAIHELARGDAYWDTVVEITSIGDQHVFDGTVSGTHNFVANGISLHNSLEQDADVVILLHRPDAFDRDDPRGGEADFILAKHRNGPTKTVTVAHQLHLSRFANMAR

Protein RecA [21] = target: T8, Protein RecA; assay: RecA Intein Measured in Biochemical System Using Plate Reader - 2047-02_Inhibitor_Dose_DryPowder_Activity. [Related pubchem assays (depositor defined):AID2223]; parameters: species or system Mycobacterium tuberculosis H37Rv

T4 sequence (P34972 whole entry): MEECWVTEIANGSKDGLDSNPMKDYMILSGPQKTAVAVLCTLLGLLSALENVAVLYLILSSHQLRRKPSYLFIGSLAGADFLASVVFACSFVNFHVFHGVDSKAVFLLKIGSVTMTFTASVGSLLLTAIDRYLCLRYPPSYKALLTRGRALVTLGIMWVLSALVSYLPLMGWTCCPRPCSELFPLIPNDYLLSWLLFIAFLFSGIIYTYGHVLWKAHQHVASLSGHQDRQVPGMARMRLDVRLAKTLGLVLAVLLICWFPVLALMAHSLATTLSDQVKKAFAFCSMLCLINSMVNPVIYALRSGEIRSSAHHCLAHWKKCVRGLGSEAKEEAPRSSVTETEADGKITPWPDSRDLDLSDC
T5 sequence (Q9UBE0 whole entry): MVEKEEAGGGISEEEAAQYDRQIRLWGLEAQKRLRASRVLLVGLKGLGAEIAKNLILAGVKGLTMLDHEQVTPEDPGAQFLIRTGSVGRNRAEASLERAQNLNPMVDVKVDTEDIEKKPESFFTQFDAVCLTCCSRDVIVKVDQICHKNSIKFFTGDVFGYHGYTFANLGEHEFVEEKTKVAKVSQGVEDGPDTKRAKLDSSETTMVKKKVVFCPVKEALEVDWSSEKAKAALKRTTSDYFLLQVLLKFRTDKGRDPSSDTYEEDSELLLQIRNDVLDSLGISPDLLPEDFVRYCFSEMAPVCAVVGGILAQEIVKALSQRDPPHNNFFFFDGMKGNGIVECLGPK
T5 sequence (Q9UBT2 whole entry): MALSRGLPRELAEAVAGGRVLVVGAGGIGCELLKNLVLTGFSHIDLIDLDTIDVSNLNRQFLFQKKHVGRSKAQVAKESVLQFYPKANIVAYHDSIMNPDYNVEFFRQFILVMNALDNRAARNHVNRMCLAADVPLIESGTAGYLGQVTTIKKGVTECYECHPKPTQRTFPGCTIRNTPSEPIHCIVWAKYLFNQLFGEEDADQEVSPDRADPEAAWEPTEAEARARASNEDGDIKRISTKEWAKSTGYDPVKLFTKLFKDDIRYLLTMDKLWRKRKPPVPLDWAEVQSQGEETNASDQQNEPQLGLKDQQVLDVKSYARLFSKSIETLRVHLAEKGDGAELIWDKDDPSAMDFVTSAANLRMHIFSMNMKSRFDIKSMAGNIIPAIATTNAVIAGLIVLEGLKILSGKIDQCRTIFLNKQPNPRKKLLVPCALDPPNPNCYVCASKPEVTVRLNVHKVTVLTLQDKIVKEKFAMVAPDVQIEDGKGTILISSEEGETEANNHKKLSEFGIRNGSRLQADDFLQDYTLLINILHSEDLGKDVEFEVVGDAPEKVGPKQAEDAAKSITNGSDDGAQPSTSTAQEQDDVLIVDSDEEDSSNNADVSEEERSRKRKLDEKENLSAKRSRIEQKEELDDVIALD
T1 sequence (Q9Y2T6 whole entry): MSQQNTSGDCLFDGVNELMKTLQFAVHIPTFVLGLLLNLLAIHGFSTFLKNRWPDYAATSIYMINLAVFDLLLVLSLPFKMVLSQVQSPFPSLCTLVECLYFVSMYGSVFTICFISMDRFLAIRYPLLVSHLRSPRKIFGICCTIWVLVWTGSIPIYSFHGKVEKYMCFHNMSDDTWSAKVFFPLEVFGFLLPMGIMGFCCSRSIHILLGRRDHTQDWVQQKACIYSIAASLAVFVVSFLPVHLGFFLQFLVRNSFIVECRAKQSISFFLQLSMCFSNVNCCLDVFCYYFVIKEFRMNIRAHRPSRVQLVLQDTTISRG
T2 sequence (P21554 whole entry): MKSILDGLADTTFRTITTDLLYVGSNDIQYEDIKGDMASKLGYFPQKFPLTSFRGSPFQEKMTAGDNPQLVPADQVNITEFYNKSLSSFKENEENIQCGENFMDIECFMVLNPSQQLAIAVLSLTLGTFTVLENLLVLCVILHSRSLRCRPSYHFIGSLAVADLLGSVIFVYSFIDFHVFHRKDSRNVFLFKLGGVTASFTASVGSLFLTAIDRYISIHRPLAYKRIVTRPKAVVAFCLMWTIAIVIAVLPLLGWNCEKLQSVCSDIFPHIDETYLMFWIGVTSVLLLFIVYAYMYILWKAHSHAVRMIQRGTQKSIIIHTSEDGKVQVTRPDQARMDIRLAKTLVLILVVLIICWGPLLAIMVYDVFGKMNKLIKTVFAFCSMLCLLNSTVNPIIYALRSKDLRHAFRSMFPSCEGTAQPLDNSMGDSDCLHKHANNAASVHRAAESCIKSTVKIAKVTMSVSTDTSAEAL
T3 sequence (Q9HC97 whole entry): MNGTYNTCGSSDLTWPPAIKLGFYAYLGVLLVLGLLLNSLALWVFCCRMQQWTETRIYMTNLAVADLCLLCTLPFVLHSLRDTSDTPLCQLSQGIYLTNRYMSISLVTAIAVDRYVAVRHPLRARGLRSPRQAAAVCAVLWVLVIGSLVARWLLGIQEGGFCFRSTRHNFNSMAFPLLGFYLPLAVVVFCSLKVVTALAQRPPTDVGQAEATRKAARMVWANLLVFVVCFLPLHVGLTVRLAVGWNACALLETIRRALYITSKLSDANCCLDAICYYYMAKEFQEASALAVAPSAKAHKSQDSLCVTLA
DNA dC->dU-editing enzyme APOBEC-3G, sequence (Q9HC16 whole entry): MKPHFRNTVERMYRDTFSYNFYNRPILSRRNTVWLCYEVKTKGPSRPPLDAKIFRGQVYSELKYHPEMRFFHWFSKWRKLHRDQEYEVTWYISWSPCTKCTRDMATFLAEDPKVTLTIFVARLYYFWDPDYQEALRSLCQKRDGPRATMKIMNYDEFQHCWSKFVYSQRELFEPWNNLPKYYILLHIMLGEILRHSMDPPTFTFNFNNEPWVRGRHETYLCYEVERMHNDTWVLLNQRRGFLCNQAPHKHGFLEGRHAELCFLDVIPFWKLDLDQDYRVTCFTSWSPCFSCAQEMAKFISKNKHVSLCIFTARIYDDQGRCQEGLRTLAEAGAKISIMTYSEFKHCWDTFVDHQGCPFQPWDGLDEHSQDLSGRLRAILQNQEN
Albumin, sequence (P02769 whole entry): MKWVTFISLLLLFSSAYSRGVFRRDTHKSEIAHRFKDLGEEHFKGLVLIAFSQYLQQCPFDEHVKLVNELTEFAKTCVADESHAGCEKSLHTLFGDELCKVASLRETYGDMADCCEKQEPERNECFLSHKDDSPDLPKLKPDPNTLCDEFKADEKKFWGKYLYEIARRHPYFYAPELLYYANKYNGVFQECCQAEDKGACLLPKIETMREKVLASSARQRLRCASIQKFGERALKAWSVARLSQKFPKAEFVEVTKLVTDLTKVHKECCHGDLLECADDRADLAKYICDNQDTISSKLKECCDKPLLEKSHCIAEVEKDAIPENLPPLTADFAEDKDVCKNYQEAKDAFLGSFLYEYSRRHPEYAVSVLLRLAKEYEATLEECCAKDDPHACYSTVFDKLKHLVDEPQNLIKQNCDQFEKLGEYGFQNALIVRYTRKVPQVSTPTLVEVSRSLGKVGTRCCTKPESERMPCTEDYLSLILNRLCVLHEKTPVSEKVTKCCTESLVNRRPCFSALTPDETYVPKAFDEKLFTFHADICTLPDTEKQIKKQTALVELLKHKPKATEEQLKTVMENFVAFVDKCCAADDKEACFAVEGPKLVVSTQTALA
DNA dC->dU-editing enzyme APOBEC-3A, sequence (P31941 whole entry): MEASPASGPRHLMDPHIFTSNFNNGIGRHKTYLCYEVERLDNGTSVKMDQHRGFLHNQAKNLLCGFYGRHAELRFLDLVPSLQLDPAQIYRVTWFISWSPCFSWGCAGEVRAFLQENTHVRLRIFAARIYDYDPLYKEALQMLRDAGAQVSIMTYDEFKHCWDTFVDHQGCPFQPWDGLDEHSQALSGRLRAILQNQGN
Large T antigen, sequence (P03070 whole entry): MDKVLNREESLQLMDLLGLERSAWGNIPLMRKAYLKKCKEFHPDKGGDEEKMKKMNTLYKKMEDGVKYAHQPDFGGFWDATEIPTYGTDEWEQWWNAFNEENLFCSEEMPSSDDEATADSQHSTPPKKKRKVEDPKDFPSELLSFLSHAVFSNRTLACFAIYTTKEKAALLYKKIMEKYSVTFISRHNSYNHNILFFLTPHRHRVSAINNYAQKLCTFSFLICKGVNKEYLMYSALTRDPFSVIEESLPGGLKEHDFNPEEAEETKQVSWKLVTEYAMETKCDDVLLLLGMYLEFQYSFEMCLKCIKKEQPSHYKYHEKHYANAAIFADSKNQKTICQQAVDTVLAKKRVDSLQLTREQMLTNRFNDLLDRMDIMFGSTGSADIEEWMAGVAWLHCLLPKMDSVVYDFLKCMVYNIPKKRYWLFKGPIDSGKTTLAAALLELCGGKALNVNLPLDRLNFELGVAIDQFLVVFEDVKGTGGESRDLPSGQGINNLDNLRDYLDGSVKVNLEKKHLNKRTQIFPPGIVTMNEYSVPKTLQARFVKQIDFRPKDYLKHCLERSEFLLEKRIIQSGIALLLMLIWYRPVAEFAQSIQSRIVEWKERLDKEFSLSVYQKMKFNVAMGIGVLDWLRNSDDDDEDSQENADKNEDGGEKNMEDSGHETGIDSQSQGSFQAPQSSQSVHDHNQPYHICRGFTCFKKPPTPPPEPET
Intestinal-type alkaline phosphatase (Homo sapiens, UniProt P09923), sequence (P09923 whole entry): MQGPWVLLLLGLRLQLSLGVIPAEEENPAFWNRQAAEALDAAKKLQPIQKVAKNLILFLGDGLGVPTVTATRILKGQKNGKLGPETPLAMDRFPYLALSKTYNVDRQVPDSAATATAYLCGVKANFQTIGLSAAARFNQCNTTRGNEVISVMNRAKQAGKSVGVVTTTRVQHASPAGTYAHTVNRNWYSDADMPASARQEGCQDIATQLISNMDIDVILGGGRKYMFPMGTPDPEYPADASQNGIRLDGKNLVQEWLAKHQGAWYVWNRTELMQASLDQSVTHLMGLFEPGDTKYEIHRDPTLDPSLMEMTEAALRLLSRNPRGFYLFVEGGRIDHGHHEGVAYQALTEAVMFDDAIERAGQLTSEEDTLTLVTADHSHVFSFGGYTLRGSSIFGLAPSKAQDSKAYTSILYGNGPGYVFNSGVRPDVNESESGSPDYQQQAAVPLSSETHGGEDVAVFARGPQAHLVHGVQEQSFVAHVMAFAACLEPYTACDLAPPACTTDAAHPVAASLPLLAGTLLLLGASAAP

## COC(=O)C1=C(N)c2c(F)cccc2C1(C#N)c1ccc(F)cc1 (stereo not drawn)
[1]
  IC50: 1.26 µM (active)
Cannabinoid receptor 1 [2]
  IC50: 30.7 µM (inactive)
[3]
  EC50: > 32 µM (inactive)
Cannabinoid receptor 2 [4]
  IC50: > 32 µM (inactive)
Cannabinoid receptor 1 [5]
  EC50: > 32 µM (inactive)
[6]
  IC50: > 32 µM (inactive)
[7]
  IC50: 1.14 µM (active)
Cannabinoid receptor 2 [8]
  EC50: > 32 µM (inactive)

## N#C/C(=C\c1ccc(O)c(O)c1)C(=O)Nc1cccc2ncccc12
[9]
  EC50: > 150 µM (inactive)
SUMO-activating enzyme [10]
  IC50: 1.27 µM (active)
[11]
  EC50: > 38 µM (not active)
Large T antigen
  IC50: 27.8 µM (active)
SUMO-activating enzyme [12]
  IC50: 21.4 µM (active)
[13]
  IC50: > 100 µM (inactive)
[14]
  IC50: 14.3 µM (active)
[15]
  IC50: 3.81 µM (active)
[16]
  IC50: 34.6 µM (active)
[17]
  IC50: 12.5 µM (active)
Albumin
  IC50: > 94 µM (inactive)
[18]
  AC50: 3.18 µM (active)

## Cc1oc2c(c1C(=O)NCc1ccccn1)C(=O)c1ccccc1C2=O
Protein RecA [19]
  AC50: 9.92 µM (active)
[20]
  AC50: 1.07 µM (active)
Protein RecA [21]
  AC50: 0.074 µM (active)

— ChEMBL document CHEMBL1201862, “PubChem BioAssay data set” (2004)
